{
  "source": "ChEMBL document CHEMBL3046339",
  "about": "“Insecticidal activity of Maytenus species (Celastraceae) nortriterpene quinone methides against codling moth, Cydia pomonella (L.) (Lepidoptera: tortricidae)” (2000)",
  "assay_type_in_all_cases": "functional",
  "key": {"[1]": {"tested_on": "Cydia pomonella", "assay": "Antifeedant activity against Cydia pomonella (codling moth) at 20 mg/kg diet topically measured after 5 days of continuous exposure (reference value: 30 +/-20.9%)"}, "[2]": {"tested_on": "Cydia pomonella", "assay": "Antifeedant activity against Cydia pomonella (codling moth) at 20 mg/kg diet topically measured after 10 days of continuous exposure (reference value: 30 +/-20.9%)"}, "[3]": {"tested_on": "Cydia pomonella", "assay": "Insecticidal activity against Cydia pomonella (codling moth) assessed as mortality at 2 mg/kg diet topically measured after 5 days of continuous exposure (reference value: 23.3 +/- 18.5%)", "details": "topical, 120 h"}, "[4]": {"tested_on": "Cydia pomonella", "assay": "Insecticidal activity against Cydia pomonella (codling moth) assessed as mortality at 20 mg/kg diet topically measured after 10 days of continuous exposure (reference value: 43.3 +/- 26%)", "details": "topical, 240 h"}, "[5]": {"tested_on": "Cydia pomonella", "assay": "Insecticidal activity against Cydia pomonella (codling moth) at 2 mg/kg assessed as growth regulation measured as number of head capsules of larvae after 5 days of continuous exposure (reference value: 0.3 +/- 0.3%)"}, "[6]": {"tested_on": "Cydia pomonella", "assay": "Insecticidal activity against Cydia pomonella (codling moth) at 2 mg/kg assessed as growth regulation measured as number of head capsules of larvae after 10 days of continuous exposure (reference value: 1.3 +/- 0.3%)"}, "[7]": {"tested_on": "Cydia pomonella", "assay": "Insecticidal activity against Cydia pomonella (codling moth) at 20 mg/kg assessed as growth regulation measured as number of head capsules of larvae after 10 days of continuous exposure (reference value: 1.3 +/- 0.3%)"}, "[8]": {"tested_on": "Cydia pomonella", "assay": "Insecticidal activity against Cydia pomonella (codling moth) assessed as mortality at 20 mg/kg diet topically measured after 5 days of continuous exposure (reference value: 23.3 +/- 18.5%)", "details": "topical, 120 h"}, "[9]": {"tested_on": "Cydia pomonella", "assay": "Antifeedant activity against Cydia pomonella (codling moth) at 2 mg/kg diet topically measured after 5 days of continuous exposure (reference value: 30 +/-20.9%)"}, "[10]": {"tested_on": "Cydia pomonella", "assay": "Antifeedant activity against Cydia pomonella (codling moth) at 2 mg/kg diet topically measured after 10 days of continuous exposure (reference value: 30 +/-20.9%)"}, "[11]": {"tested_on": "Cydia pomonella", "assay": "Insecticidal activity against Cydia pomonella (codling moth) at 20 mg/kg assessed as growth regulation measured as number of head capsules of larvae after 5 days of continuous exposure (reference value: 0.3 +/- 0.3%)"}, "[12]": {"tested_on": "Cydia pomonella", "assay": "Insecticidal activity against Cydia pomonella (codling moth) assessed as mortality at 2 mg/kg diet topically measured after 10 days of continuous exposure (reference value: 43.3 +/- 26%)", "details": "topical, 240 h"}, "[13]": {"tested_on": "Cydia pomonella", "assay": "Insecticidal activity against Cydia pomonella (codling moth) assessed as mortality at 40 mg/kg diet topically measured after 5 days of continuous exposure (reference value: 0%)", "details": "topical, 120 h"}, "[14]": {"tested_on": "Cydia pomonella", "assay": "Insecticidal activity against Cydia pomonella (codling moth) assessed as mortality at 40 mg/kg diet topically measured after 10 days of continuous exposure (reference value: 3.3 +/- 3.3%)", "details": "topical, 240 h"}, "[15]": {"tested_on": "Cydia pomonella", "assay": "Insecticidal activity against Cydia pomonella (codling moth) at 20 mg/kg assessed as growth regulation measured as number of head capsules of larvae after 5 days of continuous exposure (reference value: 0.2 +/- 0.2%)"}, "[16]": {"tested_on": "Cydia pomonella", "assay": "Antifeedant activity against Cydia pomonella (codling moth) at 20 mg/kg diet topically measured after 5 days of continuous exposure (reference value: 6.7 +/- 6.7%)"}, "[17]": {"tested_on": "Cydia pomonella", "assay": "Insecticidal activity against Cydia pomonella (codling moth) at 40 mg/kg assessed as growth regulation measured as number of head capsules of larvae after 10 days of continuous exposure Rvb = (1.5 +/- 0.2%)"}, "[18]": {"tested_on": "Cydia pomonella", "assay": "Antifeedant activity against Cydia pomonella (codling moth) at 80 mg/kg diet topically measured after 10 days of continuous exposure (reference value: 6.7 +/- 6.7%)"}, "[19]": {"tested_on": "Cydia pomonella", "assay": "Antifeedant activity against Cydia pomonella (codling moth) at 80 mg/kg diet topically measured after 5 days of continuous exposure (reference value: 6.7 +/- 6.7%)"}, "[20]": {"tested_on": "Cydia pomonella", "assay": "Insecticidal activity against Cydia pomonella (codling moth) at 80 mg/kg assessed as growth regulation measured as number of head capsules of larvae after 10 days of continuous exposure Rvb = (1.5 +/- 0.2%)"}, "[21]": {"tested_on": "Cydia pomonella", "assay": "Insecticidal activity against Cydia pomonella (codling moth) at 20 mg/kg assessed as growth regulation measured as number of head capsules of larvae after 10 days of continuous exposure Rvb = (1.5 +/- 0.2%)"}, "[22]": {"tested_on": "Cydia pomonella", "assay": "Insecticidal activity against Cydia pomonella (codling moth) at 40 mg/kg assessed as growth regulation measured as number of head capsules of larvae after 5 days of continuous exposure (reference value: 0.2 +/- 0.2%)"}, "[23]": {"tested_on": "Cydia pomonella", "assay": "Insecticidal activity against Cydia pomonella (codling moth) at 80 mg/kg assessed as growth regulation measured as number of head capsules of larvae after 5 days of continuous exposure (reference value: 0.2 +/- 0.2%)"}, "[24]": {"tested_on": "Cydia pomonella", "assay": "Insecticidal activity against Cydia pomonella (codling moth) assessed as mortality at 20 mg/kg diet topically measured after 10 days of continuous exposure (reference value: 3.3 +/- 3.3%)", "details": "topical, 240 h"}, "[25]": {"tested_on": "Cydia pomonella", "assay": "Insecticidal activity against Cydia pomonella (codling moth) assessed as mortality at 20 mg/kg diet topically measured after 5 days of continuous exposure (reference value: 0%)", "details": "topical, 120 h"}, "[26]": {"tested_on": "Cydia pomonella", "assay": "Insecticidal activity against Cydia pomonella (codling moth) assessed as mortality at 80 mg/kg diet topically measured after 5 days of continuous exposure (reference value: 0%)", "details": "topical, 120 h"}, "[27]": {"tested_on": "Cydia pomonella", "assay": "Antifeedant activity against Cydia pomonella (codling moth) at 40 mg/kg diet topically measured after 10 days of continuous exposure (reference value: 6.7 +/- 6.7%)"}, "[28]": {"tested_on": "Cydia pomonella", "assay": "Insecticidal activity against Cydia pomonella (codling moth) assessed as mortality at 80 mg/kg diet topically measured after 10 days of continuous exposure (reference value: 3.3 +/- 3.3%)", "details": "topical, 240 h"}, "[29]": {"tested_on": "Cydia pomonella", "assay": "Antifeedant activity against Cydia pomonella (codling moth) at 40 mg/kg diet topically measured after 5 days of continuous exposure (reference value: 6.7 +/- 6.7%)"}, "[30]": {"tested_on": "Cydia pomonella", "assay": "Antifeedant activity against Cydia pomonella (codling moth) at 20 mg/kg diet topically measured after 10 days of continuous exposure (reference value: 6.7 +/- 6.7%)"}},
  "data": [
    {"smiles": "C/C=C(\\C)C(=O)O[C@H]1C[C@@H](OC(C)=O)[C@@]2(C(=O)OC)CO[C@H]3[C@@H](O)[C@@](C)([C@]45O[C@@]4(C)[C@@H]4C[C@H]5O[C@@H]5OC=C[C@@]54O)[C@H]4[C@]1(CO[C@]4(O)C(=O)OC)[C@@H]32", "note": "[AZADIRACHTIN A]", "values": [
      {"measurement": "Activity", "setting": "[1]", "result": 100, "unit": "%"},
      {"measurement": "Activity", "setting": "[2]", "result": 100, "unit": "%"},
      {"measurement": "mortality at 2 mg/kg", "setting": "[3]", "result": 50, "unit": "%"},
      {"measurement": "mortality at 20 mg/kg", "setting": "[4]", "result": 100, "unit": "%"},
      {"measurement": "Activity", "setting": "[5]", "result": 0},
      {"measurement": "Activity", "setting": "[6]", "result": 0.3},
      {"measurement": "Activity", "setting": "[7]", "result": 0},
      {"measurement": "mortality at 20 mg/kg", "setting": "[8]", "result": 100, "unit": "%"},
      {"measurement": "Activity", "setting": "[9]", "result": 76.7, "unit": "%"},
      {"measurement": "Activity", "setting": "[10]", "result": 70, "unit": "%"},
      {"measurement": "Activity", "setting": "[11]", "result": 0},
      {"measurement": "mortality at 2 mg/kg", "setting": "[12]", "result": 66.7, "unit": "%"}
    ]},
    {"smiles": "COC(=O)[C@]1(C)CC[C@]2(C)CC[C@]3(C)C4=CC=C5C(=CC(=O)C(O)=C5C)[C@]4(C)CC[C@@]3(C)[C@@H]2C1", "note": "[PRISTIMERIN]", "values": [
      {"measurement": "mortality at 40 mg/kg", "setting": "[13]", "result": 33.3, "unit": "%"},
      {"measurement": "mortality at 40 mg/kg", "setting": "[14]", "result": 60, "unit": "%"},
      {"measurement": "Activity", "setting": "[15]", "result": 0},
      {"measurement": "Activity", "setting": "[16]", "result": 96.7, "unit": "%"},
      {"measurement": "Activity", "setting": "[17]", "result": 0},
      {"measurement": "Activity", "setting": "[18]", "result": 90, "unit": "%"},
      {"measurement": "Activity", "setting": "[19]", "result": 90, "unit": "%"},
      {"measurement": "Activity", "setting": "[20]", "result": 0},
      {"measurement": "Activity", "setting": "[21]", "result": 0},
      {"measurement": "Activity", "setting": "[22]", "result": 0},
      {"measurement": "Activity", "setting": "[23]", "result": 0},
      {"measurement": "mortality at 20 mg/kg", "setting": "[24]", "result": 60, "unit": "%"},
      {"measurement": "mortality at 20 mg/kg", "setting": "[25]", "result": 20, "unit": "%"},
      {"measurement": "mortality at 80 mg/kg", "setting": "[26]", "result": 90, "unit": "%"},
      {"measurement": "Activity", "setting": "[27]", "result": 83.3, "unit": "%"},
      {"measurement": "mortality at 80 mg/kg", "setting": "[28]", "result": 100, "unit": "%"},
      {"measurement": "Activity", "setting": "[29]", "result": 83.3, "unit": "%"},
      {"measurement": "Activity", "setting": "[30]", "result": 93.3, "unit": "%"}
    ]},
    {"smiles": "CC1=C(O)C(=O)C=C2C1=CC=C1[C@@]2(C)CC[C@@]2(C)[C@@H]3C[C@@H](C)C(=O)C[C@]3(C)CC[C@]12C", "note": "[TINGENONE]", "values": [
      {"measurement": "mortality at 40 mg/kg", "setting": "[13]", "result": 3.3, "unit": "%"},
      {"measurement": "mortality at 40 mg/kg", "setting": "[14]", "result": 10, "unit": "%"},
      {"measurement": "Activity", "setting": "[15]", "result": 0.7},
      {"measurement": "Activity", "setting": "[16]", "result": 0, "unit": "%"},
      {"measurement": "Activity", "setting": "[17]", "result": 1.4},
      {"measurement": "Activity", "setting": "[18]", "result": 93.3, "unit": "%"},
      {"measurement": "Activity", "setting": "[19]", "result": 100, "unit": "%"},
      {"measurement": "Activity", "setting": "[20]", "result": 0},
      {"measurement": "Activity", "setting": "[21]", "result": 3},
      {"measurement": "Activity", "setting": "[22]", "result": 0.3},
      {"measurement": "Activity", "setting": "[23]", "result": 0},
      {"measurement": "mortality at 20 mg/kg", "setting": "[24]", "result": 0, "unit": "%"},
      {"measurement": "mortality at 20 mg/kg", "setting": "[25]", "result": 0, "unit": "%"},
      {"measurement": "mortality at 80 mg/kg", "setting": "[26]", "result": 13.3, "unit": "%"},
      {"measurement": "Activity", "setting": "[27]", "result": 3.3, "unit": "%"},
      {"measurement": "mortality at 80 mg/kg", "setting": "[28]", "result": 23.3, "unit": "%"},
      {"measurement": "Activity", "setting": "[29]", "result": 10, "unit": "%"},
      {"measurement": "Activity", "setting": "[30]", "result": 0, "unit": "%"}
    ]}
  ]
}
